# Results: patent publication US20080057529A1, “Method for Identifying Histone Deacetylase Inhibitors” (priority 2003, published 2008)
# Columns and labels:
# Format in all cases: cell-based, human
# CMV promoter [1] = assay: Transient transfection of HeLa cells with CMV-BLA (pCMV-BLA) reporter plasmid, Bla staining (blue cells); conditions: Apicidin 1 μM; for % Blue cells: Table 3, 2 μg pCMV-BLA + 0.1 μg pCMV-Luc, TSA 300 nM; for Bla staining at 60 min. / fold-ind. at 60 min. (Bla): Table 6; for fold-ind. at 60 min. (Bla): vs DMSO
# Procedure: The p21m-BLA reporter plasmid was tested in transient transfection experiments of HeLa cells to evaluate the responsiveness of the minimal p21 promoter and the Bla reporter system to known HDAC inhibitors. In the first two transfection experiments, HeLa cells were transfected with 1 or 2 μg of Bla reporter plasmid containing either p21 minimal promoter (p21m-BLA) or CMV promoter (CMV-BLA) and 0.1 μg of pCMV-Luc or pRSV-Luc control plasmids. Different DNA-FUGENE transfection reagent ratios were tested (FUGENE is available from Roche Applied Science, Indianapolis, Ind.). […] Data are summarized below in Tables 1 and 2.
# The percentage of β-lactamase-positive cells increased with time independent of the presence of HDAC inhibitors and was constantly higher with p21m-BLA than with pCMV-BLA.
# In light of the above, the lack of apparent Bla activation in the above transfection experiments might have been due to the high sensitivity of the method. Therefore, transient transfections in which an accurate titration of the reporter plasmid DNA were performed. The titration of the reporter plasmid included using amounts lower than was used above. […] The transient transfections were repeated and the result confirmed (Table 7).
# endogenous p21 = assay: Induction of endogenous p21 in HeLa cells, immunoblot; conditions: Homo sapiens, 13 hour treatment, immunoblot densitometry, read-out: Endogenous p2 EC50
# Procedure: Induction of endogenous p21 and acetylation of core histones (inhibition of HDAC activity) was as follows. Dose-response experiments were performed in HeLa cells with different classes of known HDAC inhibitors. […] An α-tubulin-specific antibody (Sigma, St. Louis, Mo.; catalog number: T9026) was used as an internal standard. Quantitative data were obtained by densitometric analysis of X-ray films and were normalized for the internal standard values.
# CMV promoter [2] = assay: Luc activity of co-transfected pCMV-Luc control plasmid in HeLa cells; conditions: TSA 300 nM, Apicidin 1 μM; for RLU/mg / Fold Ind. RLU: Table 3; for Fold Ind. RLU: vs DMSO; for RLU norm mean / RLU/μg: Table 5; for RLU/μg: luciferase control plasmid not named
# p21 minimal promoter = assay: Transient transfection of HeLa cells with p21m-SEAP reporter plasmid, SEAP activity; conditions: Apicidin 1 μM; for SEAP (10 min) / SEAP activity normalised to total protein / Fold Induct. (SEAP norm) / Fold induct. (SEAP): Table 4; for Fold Induct. (SEAP norm) / Fold induct. (SEAP): vs DMSO
# Procedure: To determine whether the p21 minimal promoter was responsive to HDAC inhibitors, a reporter plasmid containing the secreted alkaline phosphatase gene (SEAP) operably linked to the p21 minimal promoter (−182 through +25), pcDNA3-21m-SEAP, was tested in transient transfection experiments of HeLa cells. […] All data summarized in Tables 4 through 7 were obtained by normalizing the total amount of transfected DNA to 2.1 μg using a promoterless plasmid.
structure (smiles),measurement,setting,value
CCC(=O)CCCCC[C@@H]1NC(=O)[C@H]2CCCCN2C(=O)[C@H]([C@@H](C)CC)NC(=O)[C@H](Cc2cn(OC)c3ccccc23)NC1=O [Apicidin],% Blue cells,CMV promoter [1]; 6 hr treatment,4%
same,% Blue cells,CMV promoter [1]; 12 hr treatment,3%
same,% Blue cells,CMV promoter [1]; 24 hr treatment,10%
same,Bla staining at 60 min.,CMV promoter [1]; pCMV-BLA 0 μg DNA,0%
same,Bla staining at 60 min.,CMV promoter [1]; pCMV-BLA 0.02 μg DNA,5%
same,fold-ind. at 60 min. (Bla),CMV promoter [1]; pCMV-BLA 0.02 μg DNA,1 fold
same,Bla staining at 60 min.,CMV promoter [1]; pCMV-BLA 0.05 μg DNA,5-10%
same,fold-ind. at 60 min. (Bla),CMV promoter [1]; pCMV-BLA 0.05 μg DNA,1 fold
same,Bla staining at 60 min.,CMV promoter [1]; pCMV-BLA 0.1 μg DNA,10-15%
same,fold-ind. at 60 min. (Bla),CMV promoter [1]; pCMV-BLA 0.1 μg DNA,1 fold
same,Bla staining at 60 min.,CMV promoter [1]; pCMV-BLA 0.2 μg DNA,20%
same,fold-ind. at 60 min. (Bla),CMV promoter [1]; pCMV-BLA 0.2 μg DNA,1 fold
same,Bla staining at 60 min.,CMV promoter [1]; pCMV-BLA 0.5 μg DNA,40%
same,fold-ind. at 60 min. (Bla),CMV promoter [1]; pCMV-BLA 0.5 μg DNA,1 fold
same,EC50,endogenous p21,70 nM
same,RLU/mg,"CMV promoter [2]; 2 μg p21m-BLA + 0.1 μg pCMV-Luc, 6 hr treatment",79723 RLU/mg
same,Fold Ind. RLU,"CMV promoter [2]; 2 μg p21m-BLA + 0.1 μg pCMV-Luc, 6 hr",3.6 fold
same,RLU/mg,"CMV promoter [2]; 2 μg p21m-BLA + 0.1 μg pCMV-Luc, 12 hr treatment",183519 RLU/mg
same,Fold Ind. RLU,"CMV promoter [2]; 2 μg p21m-BLA + 0.1 μg pCMV-Luc, 12 hr",2.45 fold
same,RLU/mg,"CMV promoter [2]; 2 μg p21m-BLA + 0.1 μg pCMV-Luc, 24 hr treatment",131733 RLU/mg
same,Fold Ind. RLU,"CMV promoter [2]; 2 μg p21m-BLA + 0.1 μg pCMV-Luc, 24 hr",2.9 fold
same,RLU/mg,"CMV promoter [2]; 2 μg pCMV-BLA + 0.1 μg pCMV-Luc, 6 hr treatment",10937 RLU/mg
same,Fold Ind. RLU,"CMV promoter [2]; 2 μg pCMV-BLA + 0.1 μg pCMV-Luc, 6 hr",2 fold
same,RLU/mg,"CMV promoter [2]; 2 μg pCMV-BLA + 0.1 μg pCMV-Luc, 12 hr treatment",39603.5 RLU/mg
same,Fold Ind. RLU,"CMV promoter [2]; 2 μg pCMV-BLA + 0.1 μg pCMV-Luc, 12 hr",3.6 fold
same,RLU/mg,"CMV promoter [2]; 2 μg pCMV-BLA + 0.1 μg pCMV-Luc, 24 hr treatment",18932.5 RLU/mg
same,Fold Ind. RLU,"CMV promoter [2]; 2 μg pCMV-BLA + 0.1 μg pCMV-Luc, 24 hr",5.3 fold
same,RLU norm mean,CMV promoter [2]; P21m-SEAP 0 μg DNA,1.08
same,RLU/μg,CMV promoter [2]; P21m-SEAP 0 μg DNA,"102,236.00 RLU/μg"
same,RLU norm mean,CMV promoter [2]; P21m-SEAP 0.1 μg DNA,1.17
same,RLU/μg,CMV promoter [2]; P21m-SEAP 0.1 μg DNA,"111,192.67 RLU/μg"
same,RLU norm mean,CMV promoter [2]; P21m-SEAP 0.2 μg DNA,1.14
same,RLU/μg,CMV promoter [2]; P21m-SEAP 0.2 μg DNA,"108,052.99 RLU/μg"
same,RLU norm mean,CMV promoter [2]; P21m-SEAP 0.5 μg DNA,0.57
same,RLU/μg,CMV promoter [2]; P21m-SEAP 0.5 μg DNA,"54,363.72 RLU/μg"
same,RLU norm mean,CMV promoter [2]; P21m-SEAP 1 μg DNA,1.14
same,RLU/μg,CMV promoter [2]; P21m-SEAP 1 μg DNA,"108,153.75 RLU/μg"
same,RLU norm mean,CMV promoter [2]; P21m-SEAP 2 μg DNA,0.90
same,RLU/μg,CMV promoter [2]; P21m-SEAP 2 μg DNA,"85,172.59 RLU/μg"
same,induction of SEAP (maximum),"p21 minimal promoter; TSA 300 nM, p21m-SEAP promoter titration in HeLa",up to 20 fold
same,SEAP (10 min),p21 minimal promoter; P21m-SEAP 0 μg DNA (total DNA 2.1 μg),11366
same,SEAP activity normalised to total protein,p21 minimal promoter; P21m-SEAP 0 μg DNA,5683
same,Fold Induct. (SEAP norm),p21 minimal promoter; P21m-SEAP 0 μg DNA,4.901 fold
same,Fold induct. (SEAP),p21 minimal promoter; P21m-SEAP 0 μg DNA,3.5 fold
same,SEAP (10 min),p21 minimal promoter; P21m-SEAP 0.1 μg DNA (total DNA 2.1 μg),41278
same,SEAP activity normalised to total protein,p21 minimal promoter; P21m-SEAP 0.1 μg DNA,27518.67
same,Fold Induct. (SEAP norm),p21 minimal promoter; P21m-SEAP 0.1 μg DNA,7.691 fold
same,Fold induct. (SEAP),p21 minimal promoter; P21m-SEAP 0.1 μg DNA,4.8 fold
same,SEAP (10 min),p21 minimal promoter; P21m-SEAP 0.2 μg DNA (total DNA 2.1 μg),33449
same,SEAP activity normalised to total protein,p21 minimal promoter; P21m-SEAP 0.2 μg DNA,16724.5
same,Fold Induct. (SEAP norm),p21 minimal promoter; P21m-SEAP 0.2 μg DNA,14.9372 fold
same,Fold induct. (SEAP),p21 minimal promoter; P21m-SEAP 0.2 μg DNA,10.3 fold
same,SEAP (10 min),p21 minimal promoter; P21m-SEAP 0.5 μg DNA (total DNA 2.1 μg),81729
same,SEAP activity normalised to total protein,p21 minimal promoter; P21m-SEAP 0.5 μg DNA,54486
same,Fold Induct. (SEAP norm),p21 minimal promoter; P21m-SEAP 0.5 μg DNA,19.2643 fold
same,Fold induct. (SEAP),p21 minimal promoter; P21m-SEAP 0.5 μg DNA,9.6 fold
